Reference: paper PMC9611727, “Optimization of a Novel Mandelamide-Derived Pyrrolopyrimidine Series of PERK Inhibitors” (Pharmaceutics, 2022)

Columns and labels:
Test in all cases: scanMAX kinase panel
Format in all cases: binding
Conditions in all cases: read-out: % Control; for remaining binding at 1 µM: 1000 nM
FLT3(K663Q) = biological target: T1, FLT3(K663Q) (Homo sapiens, UniProt P36888, K663Q)
T1 construct: purchased DiscoverX scanMAX
T1 sequence (P36888 27-993 K663Q): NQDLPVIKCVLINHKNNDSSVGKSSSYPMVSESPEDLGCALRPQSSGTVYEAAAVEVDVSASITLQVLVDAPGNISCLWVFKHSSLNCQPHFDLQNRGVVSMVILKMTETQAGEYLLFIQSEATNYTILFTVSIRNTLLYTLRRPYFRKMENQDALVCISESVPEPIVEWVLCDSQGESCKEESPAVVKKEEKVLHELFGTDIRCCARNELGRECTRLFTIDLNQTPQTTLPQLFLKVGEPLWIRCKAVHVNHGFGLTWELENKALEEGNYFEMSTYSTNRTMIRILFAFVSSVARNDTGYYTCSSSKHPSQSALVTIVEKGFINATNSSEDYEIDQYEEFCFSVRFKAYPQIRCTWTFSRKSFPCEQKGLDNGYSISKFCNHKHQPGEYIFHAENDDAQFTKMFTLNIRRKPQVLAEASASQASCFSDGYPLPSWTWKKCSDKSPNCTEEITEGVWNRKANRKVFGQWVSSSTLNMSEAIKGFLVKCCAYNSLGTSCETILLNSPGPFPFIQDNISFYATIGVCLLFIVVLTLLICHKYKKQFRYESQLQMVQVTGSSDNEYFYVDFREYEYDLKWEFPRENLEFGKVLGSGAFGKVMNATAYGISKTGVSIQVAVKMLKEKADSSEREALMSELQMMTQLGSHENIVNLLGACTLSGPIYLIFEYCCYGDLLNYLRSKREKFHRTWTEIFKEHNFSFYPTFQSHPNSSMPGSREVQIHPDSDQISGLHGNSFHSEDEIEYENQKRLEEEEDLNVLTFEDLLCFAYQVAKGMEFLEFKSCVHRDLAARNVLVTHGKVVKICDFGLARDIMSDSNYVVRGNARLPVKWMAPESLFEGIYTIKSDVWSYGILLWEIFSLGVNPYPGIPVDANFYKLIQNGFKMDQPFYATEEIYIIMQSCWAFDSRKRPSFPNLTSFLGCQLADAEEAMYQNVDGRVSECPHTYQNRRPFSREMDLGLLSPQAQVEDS
Source text: (§1) Supplemental Table S2. scanMAXSM Kinome Assay Results. Complete tabulated data of all 468 kinases from the panel, including
(§2) 403 wild-type and 65 mutant isoforms. […] Cmpd 11 and Cmpd 24

HIPK4 = biological target: T2, HIPK4 (Homo sapiens, UniProt Q8NE63)
T2 construct: purchased DiscoverX scanMAX
T2 sequence (Q8NE63 1-616): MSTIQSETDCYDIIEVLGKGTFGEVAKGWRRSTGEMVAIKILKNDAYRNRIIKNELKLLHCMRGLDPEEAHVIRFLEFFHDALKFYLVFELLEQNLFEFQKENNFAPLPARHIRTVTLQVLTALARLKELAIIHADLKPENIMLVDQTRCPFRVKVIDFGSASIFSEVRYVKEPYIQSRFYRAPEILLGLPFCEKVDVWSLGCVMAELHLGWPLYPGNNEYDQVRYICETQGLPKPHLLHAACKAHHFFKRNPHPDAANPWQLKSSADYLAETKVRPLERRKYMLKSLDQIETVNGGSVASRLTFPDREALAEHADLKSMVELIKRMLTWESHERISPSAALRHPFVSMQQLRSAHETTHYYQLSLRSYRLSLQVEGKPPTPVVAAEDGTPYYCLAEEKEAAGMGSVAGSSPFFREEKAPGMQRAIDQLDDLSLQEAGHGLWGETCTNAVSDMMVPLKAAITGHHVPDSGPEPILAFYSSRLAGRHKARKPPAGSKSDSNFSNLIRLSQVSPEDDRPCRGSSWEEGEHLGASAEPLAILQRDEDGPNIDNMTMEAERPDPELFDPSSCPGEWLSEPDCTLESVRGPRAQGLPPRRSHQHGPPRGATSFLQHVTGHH
Source text: as §1, §2

MERTK = biological target: T3, MERTK (Homo sapiens, UniProt Q12866)
T3 construct: purchased DiscoverX scanMAX
T3 sequence (Q12866 21-999): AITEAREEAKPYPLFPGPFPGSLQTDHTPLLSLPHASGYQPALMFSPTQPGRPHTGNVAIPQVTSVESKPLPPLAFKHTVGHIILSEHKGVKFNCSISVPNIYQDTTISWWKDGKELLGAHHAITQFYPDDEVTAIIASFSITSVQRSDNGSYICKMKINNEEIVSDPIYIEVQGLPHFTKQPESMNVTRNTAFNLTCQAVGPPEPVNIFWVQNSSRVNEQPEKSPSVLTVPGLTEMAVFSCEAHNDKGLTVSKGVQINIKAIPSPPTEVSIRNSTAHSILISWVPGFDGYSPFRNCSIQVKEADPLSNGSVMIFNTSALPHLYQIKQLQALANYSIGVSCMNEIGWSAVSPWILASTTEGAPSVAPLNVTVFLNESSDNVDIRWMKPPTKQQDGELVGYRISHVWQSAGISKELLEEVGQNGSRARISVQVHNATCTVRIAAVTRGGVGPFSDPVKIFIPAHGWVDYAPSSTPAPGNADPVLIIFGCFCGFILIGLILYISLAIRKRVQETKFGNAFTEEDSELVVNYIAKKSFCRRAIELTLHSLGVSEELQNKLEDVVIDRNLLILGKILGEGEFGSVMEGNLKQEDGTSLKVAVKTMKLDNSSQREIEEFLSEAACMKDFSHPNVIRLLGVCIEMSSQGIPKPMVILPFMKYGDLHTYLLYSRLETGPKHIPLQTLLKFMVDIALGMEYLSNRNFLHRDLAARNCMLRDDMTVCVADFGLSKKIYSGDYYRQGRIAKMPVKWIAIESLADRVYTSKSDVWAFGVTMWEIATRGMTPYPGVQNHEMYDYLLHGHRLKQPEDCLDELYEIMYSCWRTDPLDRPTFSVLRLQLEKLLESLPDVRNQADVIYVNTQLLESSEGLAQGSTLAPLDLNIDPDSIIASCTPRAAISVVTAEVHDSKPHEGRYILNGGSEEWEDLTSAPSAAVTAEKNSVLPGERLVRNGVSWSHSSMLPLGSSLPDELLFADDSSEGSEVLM
Source text: as §1, §2

RIOK2 = biological target: T4, RIOK2 (Homo sapiens, UniProt Q9BVS4)
T4 construct: purchased DiscoverX (scanMAX panel)
Source text: as §1, §2

T4 sequence (Q9BVS4 whole entry): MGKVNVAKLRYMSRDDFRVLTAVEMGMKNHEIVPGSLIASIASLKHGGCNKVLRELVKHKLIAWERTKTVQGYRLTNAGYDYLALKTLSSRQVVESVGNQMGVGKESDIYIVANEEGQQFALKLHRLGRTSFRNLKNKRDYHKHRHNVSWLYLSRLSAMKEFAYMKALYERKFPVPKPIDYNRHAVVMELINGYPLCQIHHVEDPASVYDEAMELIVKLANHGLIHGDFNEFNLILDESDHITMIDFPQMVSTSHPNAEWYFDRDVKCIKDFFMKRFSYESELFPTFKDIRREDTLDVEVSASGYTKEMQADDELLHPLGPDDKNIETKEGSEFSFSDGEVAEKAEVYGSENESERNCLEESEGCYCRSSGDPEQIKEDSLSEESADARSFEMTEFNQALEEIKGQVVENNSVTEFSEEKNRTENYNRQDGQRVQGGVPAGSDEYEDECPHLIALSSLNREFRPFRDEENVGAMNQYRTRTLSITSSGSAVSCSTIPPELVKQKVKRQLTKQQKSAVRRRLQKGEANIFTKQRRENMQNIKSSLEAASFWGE

Cc1cc(NC(=O)[C@H](O)c2cccc(F)c2)ccc1-c1cn(C)c2ncnc(N)c12 [Compound 11, (R)-N-(4-(4-amino-7-methyl-7H-pyrrolo[2,3-d]pyrimidin-5-yl)-3-methylphenyl)-2-(3-fluorophenyl)-2-hydroxy acetamide]
remaining binding at 1 µM (FLT3(K663Q)): 26%
remaining binding at 1 µM (HIPK4): 16%
remaining binding at 1 µM (MERTK): 65%
remaining binding at 1 µM (RIOK2): 20%

Cc1nc(N)c2c(-c3ccc(NC(=O)[C@H](O)c4cccc(F)c4)cc3C)cn(C)c2n1 [Compound 24]
remaining binding at 1 µM (FLT3(K663Q)): 83%
remaining binding at 1 µM (HIPK4): 100%
remaining binding at 1 µM (MERTK): 100%
remaining binding at 1 µM (RIOK2): 89%

Cc1nc(N)c2c(-c3ccc(NC(=O)[C@H](O)c4cccc(C(F)(F)F)c4)cc3C)cn(C)c2n1 [Compound 26]
remaining binding at 0.1 µM (FLT3(K663Q); 100 nM): 51%
remaining binding at 1 µM (FLT3(K663Q)): 20%
remaining binding at 0.1 µM (HIPK4; 100 nM): 69%
remaining binding at 1 µM (HIPK4): 3.8%
remaining binding at 0.1 µM (MERTK; 100 nM): 94%
remaining binding at 1 µM (MERTK): 29%
remaining binding at 0.1 µM (RIOK2; 100 nM): 91%
remaining binding at 1 µM (RIOK2): 92%
